Structures can show the parent of a compound that is named as a salt.
What was measured:
GST-VEGFR2 = biological target: T1, GST-VEGFR2 (Homo sapiens, UniProt P35968); test: VEGF-R2 enzyme assay (VEGF-E), LANCE method; assay type: biochemical; conditions: 75 μM ATP
T1 construct: GST-VEGFR2, baculovirus expressed recombinant constructs of the intracellular domains of human TIE2 tagged by GST; made in house

[1] = biological target: T2, GST-TIE2 (intracellular domains of human TIE2) (Homo sapiens, UniProt Q02763); test: TIE-2 enzyme assay (TIE2-E), LANCE method; assay type: biochemical; conditions: 80 uM ATP
T2 construct: made in house
T2 sequence (Q02763 762-1104): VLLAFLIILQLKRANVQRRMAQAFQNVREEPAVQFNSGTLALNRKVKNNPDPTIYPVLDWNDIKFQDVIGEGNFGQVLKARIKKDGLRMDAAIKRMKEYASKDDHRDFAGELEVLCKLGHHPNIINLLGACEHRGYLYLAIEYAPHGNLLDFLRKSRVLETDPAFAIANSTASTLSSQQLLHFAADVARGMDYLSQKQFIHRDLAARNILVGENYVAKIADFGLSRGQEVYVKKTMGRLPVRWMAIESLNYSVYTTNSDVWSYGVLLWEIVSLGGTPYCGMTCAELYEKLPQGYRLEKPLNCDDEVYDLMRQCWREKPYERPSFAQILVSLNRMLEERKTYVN
Outline: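 Baculovirus GST-TIE2 (human intracellular domain, aa 762–1104) preactivated 30 min at RT with 2 mM ATP, then reacted 30 min at RT with 1 μM D1-15 peptide, 80 uM ATP, 10 mM MgCl2, pH 7.4, 2.4% DMSO. EDTA-stopped; LANCE Eu-anti-pTyr/streptavidin-APC read-out. IC50 by nonlinear regression, reported as pIC50.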

[2] = system: Human umbilical cord endothelial cells (HUVEC); test: VEGF-driven cellular proliferation assay: BrdU incorporation assay (VEGF-C); assay type: cell-based; design: key to VEGF-C: + = pIC50 of 5.0–6.0; ++ = pIC50 of 6.0–7.0; +++ = pIC50 of > 7.0; − = a negative or inconclusive result; conditions: for IC50: Homo sapiens
Experimental: VFGF-driven Cellular Proliferation Assay: BrdU Incorporation Assay (VEGF-C)
Human umbilical cord endothelial cells (HUVEC, Clonetics, CC2519) were passaged in Type I collagen-coated 100-mm petridishes in EGM-MV medium (Clonetics, CC3125) at 37° C. in a humidified 5% CO2, 95% air incubator. (HUVEC passaged more than 6 times in vitro were discarded and not subjected to assaying.) The cells were harvested using trypsin/EDTA, counted using a haemocytometer and plated at 5000 cells/well in a Type I-collagen coated 96-well plate (Becton Dickinson, 354407) in M199 medium (Gibco BRL, 12340-030) containing 5% FBS (Hyclone, A 1115-L) and gentamicin (at 50 μg/ml, Gibco BRL). After incubation overnight at 37° C., the media were replaced with 100 μl of M199 serum-free medium containing compounds at various concentrations with 0.6% DMSO and gentamicin. The compounds were diluted in serum-free M199 medium from 10 mM stock solutions prepared in 100% DMSO. After a 30 min incubation at 37° C., the cells were fed with 100 μl of serum-free M199 medium containing gentamicin, 0.2% culture-grade bovine serum albumin (BSA, Sigma A1993) and 20 ng/ml of VEGF (R&D systems, 293-VE) or 0.6 ng/ml of basic FGF (R&D systems, 233-FB), and cultured at 37° C. for another 24 h. The cells were pulsed with bromodeoxyuridine (BrdU at 10 μM in serum-free M199) at 37° C. for an additional 24 h. The incorporation of BrdU into the proliferating HUVEC were analyzed using BrdU Cell Proliferation ELISA (Roche Molecular Biochemicals, 1647229) according to the manufacturer's protocols. The optical density at 450 nm was measured with a multilabel counter (ARVO SX, Wallac). The percent inhibition of cell growth was calculated relative to blank control wells. The concentration of test compound that inhibits 50% of cell growth (IC50) was interpolated using nonlinear regression (Levernberg-Marquardt) and the equation, y=Vmax (1−x/(K+x))+Y2, where “K” was equal to the IC50. The IC50, values were converted to pIC50 values, i.e., −log IC50 in Molar concentration.

[3] = biological target: T3, TIE2 intracellular domain/c-fms extracellular domain (TIE2/c-fms) chimeric protein expressing mouse 3T3 cells (Homo sapiens, UniProt Q02763); test: TIE-2 autophosphorylation assay (TIE2-C), ELISA; assay type: cell-based; conditions: TIE2/c-fms 3T3 cells, MCSF activation
T3 construct: a TIE2 intracellular domain/c-fms extracellular domain (TIE2/c-fms) chimeric protein; expressed in transfected cells; host or cells: mouse 3T3 cells
T3 sequence (Q02763 770-1124 limits assumed, change not shown): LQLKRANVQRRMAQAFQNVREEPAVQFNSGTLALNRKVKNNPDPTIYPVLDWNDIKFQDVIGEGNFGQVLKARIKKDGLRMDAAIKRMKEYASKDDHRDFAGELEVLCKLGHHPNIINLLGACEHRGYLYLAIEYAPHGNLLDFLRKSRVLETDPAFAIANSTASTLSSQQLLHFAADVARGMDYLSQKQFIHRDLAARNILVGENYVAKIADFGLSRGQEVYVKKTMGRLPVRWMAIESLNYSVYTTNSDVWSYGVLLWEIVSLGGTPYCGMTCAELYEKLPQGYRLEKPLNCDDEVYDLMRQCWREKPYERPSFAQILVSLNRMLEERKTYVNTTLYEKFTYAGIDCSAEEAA
Experimental: TIE-2 Autophosphorylation Assay (TIE2-C)
The TIE-2 autophosphorylation assay used an ELISA method and a TIE2 intracellular domain/c-fms extracellular domain (TIE2/c-fms) chimeric protein expressing mouse 3T3 cells. This assay measured the autophosphorylation level of TIE2 protein expressed in cells. The cells were cultured in high glucose DMEM (Sigma) containing 10% serum at 37° C. in a humidified 10% CO2, 90% air incubator. The test compound (diluted from a 10 mM stock in DMSO, final DMSO concentration was 0.1%) was incubated with TIE2/c-fms expressing cells for 1 hr in serum free DMEM in 96 well plates followed by the activation of TIE2/c-fms receptor using c-fms ligand, MCSF (macrophage colony stimulating factor). The culture media was removed by aspiration and the cells incubated for at least 30 mins on ice with lysis buffer containing 137 mM NaCl, 2 mM EDTA, 10% glycerol, […] sodium ortho vanadate and complete protease inhibitor cocktail (Roche) in 20 mM Tris-HCl (pH8.0). The cell extracts were transferred into Rat anti-c-fms antibody coated 96 well plates and incubated for 12 hrs at 4° C. The extracts were removed by aspiration and the plate was incubated with biotinylated anti-phosphotyrosine antibody, PT66 (Sigma) and then with HRP (Horseradish Peroxidase)-labeled streptavidin (PIERCE). The optical density at 450 nm derived from HRP catalyzed TMB was measured with an ARVO multilabel counter. (Wallac Berthold Japan). The percent inhibition of activity was calculated relative to blank control wells. The concentration of test compound that inhibits 50% of activity (IC50) was interpolated using nonlinear regression (Levernberg-Marquardt) and the equation, y=Vmax (1−x/(K+x))+Y2, where “K” was equal to the IC50. The IC50 values were converted to pIC50 values, i.e., −log IC50 in Molar concentration.

T1 sequence (P35968 786-1356 limits assumed): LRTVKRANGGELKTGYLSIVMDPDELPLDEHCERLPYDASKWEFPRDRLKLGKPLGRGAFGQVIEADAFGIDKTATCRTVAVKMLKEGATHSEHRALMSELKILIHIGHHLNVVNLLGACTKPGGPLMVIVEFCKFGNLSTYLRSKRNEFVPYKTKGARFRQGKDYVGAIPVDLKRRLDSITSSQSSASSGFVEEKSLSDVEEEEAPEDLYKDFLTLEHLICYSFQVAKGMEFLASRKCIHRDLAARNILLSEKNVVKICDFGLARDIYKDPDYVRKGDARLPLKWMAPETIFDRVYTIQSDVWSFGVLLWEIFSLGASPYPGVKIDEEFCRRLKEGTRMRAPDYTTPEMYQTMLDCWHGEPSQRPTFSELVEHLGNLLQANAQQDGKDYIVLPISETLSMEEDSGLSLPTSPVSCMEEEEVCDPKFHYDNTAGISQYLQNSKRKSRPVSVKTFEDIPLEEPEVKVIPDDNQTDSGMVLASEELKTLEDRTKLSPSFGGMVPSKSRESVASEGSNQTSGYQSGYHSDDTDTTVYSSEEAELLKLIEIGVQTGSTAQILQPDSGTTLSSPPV

SMILES	IC50 (GST-VEGFR2) [nM]	IC50 [1] [nM]	VEGF-C [2]	IC50 [3] [nM]	IC50 [2] [nM]
COC(=O)Nc1nc2cc(Oc3ccc(NC(=O)Nc4cccc(Cl)c4)cc3)ccc2[nH]1 [Example 1, Methyl N-(5-(4-((3-chlorophenyl)aminocarbonylamino)phenoxy)-1H-benzimidazol-2-yl)carbamate]	< 100	< 100	−	100 to 1000	
COC(=O)Nc1nc2ccc(Sc3ccc(NC(=O)Nc4cccc(C(F)(F)F)c4)cc3)cc2[nH]1 [Example 2, Methyl N-(5-(4-((3-(trifluoromethyl)phenyl)aminocarbonylamino)phenylthio)-1H-benzimidazol-2-yl)carbamate]	< 100	< 100		< 100	1000 to 10000
COC(=O)Nc1nc2ccc(Sc3ccc(NC(=O)Nc4cccc(Br)c4)cc3)cc2[nH]1 [Example 4, Methyl N-(5-(4-((3-bromophenyl)aminocarbonylamino)phenylthio)-1H-benzimidazol-2-yl)carbamate]	100 to 1000	< 100	−	1000 to 10000	
COC(=O)Nc1nc2ccc(Sc3ccc(NC(=O)Nc4cc(OC)cc(OC)c4)cc3)cc2[nH]1 [Example 5, Methyl N-(5-(4-((3,5-dimethoxyphenyl)aminocarbonylamino)phenylthio)-1H-benzimidazol-2-yl)carbamate]	1000 to 10000	100 to 1000	−	< 100	
CCc1cccc(NC(=O)Nc2ccc(Oc3ccc4[nH]c(NC(=O)OC)nc4c3)cc2)c1 [Example 11, Methyl N-(5-(4-((3-ethylphenyl)aminocarbonylamino)phenoxy)-1H-benzimidazol-2-yl)carbamate]		< 100	−	100 to 1000	
COC(=O)Nc1nc2cc(S(=O)(=O)c3ccc(NC(=O)Nc4cc(C(F)(F)F)ccc4F)cc3)ccc2[nH]1 [Example 12, Methyl N-(5-(4-((2-fluoro-5-(trifluoromethyl)phenyl)aminocarbonylamino)phenylsulfonyl)-1H-benzimidazol-2-yl)carbamate]	1000 to 10000	100 to 1000	−	< 100	
COC(=O)Nc1nc2cc([S+]([O-])c3ccc(NC(=O)Nc4cc(C(F)(F)F)ccc4F)cc3)ccc2[nH]1 (stereo not drawn) [Example 13, Methyl N-(5-(4-((2-fluoro-5-(trifluoromethyl)phenyl)aminocarbonylamino)phenylsulfinyl)-1H-benzimidazol-2-yl)carbamate]	100 to 1000	< 100	−	100 to 1000	
COC(=O)Nc1nc2cc(Oc3cccc(NC(=O)Nc4cccc(C(F)(F)F)c4)c3)ccc2[nH]1 [Example 20, Methyl N-(5-(3-((3-(trifluoromethyl)phenyl)aminocarbonylamino)phenoxy)-1H-benzimidazol-2-yl)carbamate]		< 100		100 to 1000	< 100
COC(=O)Nc1nc2cc(Oc3ccc(NC(=O)Nc4cccc(C(C)(C)C)c4)cc3)ccc2[nH]1 [Example 21, Methyl N-(5-(4-((3-t-butylphenyl)aminocarbonylamino)phenoxy)-1H-benzimidazol-2-yl)carbamate]		< 100	−	< 100	
CS(=O)(=O)n1c(N)nc2ccc(Oc3ccc(NC(=O)Nc4cc(C(F)(F)F)ccc4F)cc3)cc21 [Example 23]		< 100		< 100	100 to 1000
O=C(O)CCC(=O)Nc1nc2cc(Oc3ccc(NC(=O)Nc4cc(C(F)(F)F)ccc4F)cc3)ccc2[nH]1 [Example 32, 3-(N-(5-(4-((2-Fluoro-5-(trifluoromethyl)phenyl)aminocarbonylamino)phenoxy)-1H-benzimidazol-2-yl)carbamoyl)propionic acid]		< 100		100 to 1000	1000 to 10000
COCCOCC(=O)Nc1nc2ccc(Oc3ccc(NC(=O)Nc4cc(C(F)(F)F)ccc4F)cc3)cc2[nH]1 [Example 34]		< 100	−	< 100	
CC(=O)Nc1nc2cc(Oc3ccc(NC(=O)Nc4cc(C(F)(F)F)ccc4F)nc3)ccc2[nH]1 [Example 36, N-(5-(2-((2-fluoro-5-(trifluoromethyl)phenyl)aminocarbonylamino)-5-pyridyloxy)-1H-benzimidazol-2-yl)acetamide dihydrochloride]		< 100	−	< 100	
COC(=O)Nc1nc2cc(Oc3ccc(NC(=O)Nc4cccc(Br)c4)cc3)ccc2[nH]1 [Example 40, Methyl N-(5-(4-((3-bromophenyl)aminocarbonylamino)phenoxy)-1H-benzimidazol-2-yl)carbamate]		< 100	−	< 100	
COC(=O)Nc1nc2cc(Oc3ccc(NC(=O)Nc4cccc(SC(F)(F)F)c4)cc3)ccc2[nH]1 [Example 41, Methyl N-(5-(4-((3-(trifluoromethylthio)phenyl)aminocarbonylamino)phenoxy)-1H-benzimidazol-2-yl)carbamate]		< 100	−	< 100	
COC(=O)Nc1nc2ncc(Oc3ccc(NC(=O)Nc4cc(C(F)(F)F)ccc4F)cc3)cc2[nH]1.Cl [Example 75, Methyl N-(6-(4-((2-fluoro-5-(trifluoromethyl)phenyl)aminocarbonylamino)phenoxy)-3,4-diaza-1H-indole-2-yl)carbamate dihydrochloride]		100 to 1000	−	< 100	
COC(=O)Nc1nc2ccc(Oc3ccc(NC(=O)Nc4cc(C(F)(F)F)ccc4Cl)cc3)cc2s1 [Example 76, Methyl N-(6-(4-((2-chloro-5-(trifluoromethyl)phenyl)aminocarbonylamino)phenoxy)benzthiazol-2-yl)carbamate]		< 100	−	< 100	
CN1CCN(CC(=O)Nc2nc3ccc(Oc4ccc(NC(=O)Nc5cc(C(F)(F)F)ccc5F)cc4)cc3[nH]2)CC1 [Example 101, N-(5-(4-((2-Fluoro-5-(trifluoromethyl)phenyl)aminocarbonylamino)phenoxy)-1H-benzimidazol-2-yl)(4-methyl-1-piperazino)acetamide]		< 100		< 100	< 100
